Converted amounts (≈) assume the structure as drawn.
Legend:
[1] = test system: Trypanosoma brucei gambiense; assay: Trypanocidal activity against Trypanosoma brucei gambiense; type: functional, organism-based
[2] = test system: Mycobacterium tuberculosis; assay: Antitubercular activity against Mycobacterium tuberculosis HN878; type: functional
[3] = test system: Mycobacterium tuberculosis; assay: Antitubercular activity against Mycobacterium tuberculosis HN878 in presence of non-ionic surfactant vesicles relative to compound alone; type: functional
Candida parapsilosis = assay: Antifungal activity against Candida parapsilosis ATCC 22019 incubated for 24 hrs by CLSI based broth microdilution method; type: functional; settings: Lodderomyces parapsilosis, ATCC 22019, 24 h
Candida albicans = assay: Antifungal activity against Candida albicans SC5314 incubated for 24 hrs by CLSI based broth microdilution method; type: functional; settings: SC5314, 24 h
Nakaseomyces glabratus = assay: Antifungal activity against Candida glabrata ATCC 2001 incubated for 24 hrs by CLSI based broth microdilution method; type: functional; settings: ATCC 2001, 24 h

Compound | IC50 [1] [nM] | MIC50 [2] [µM] | fold change (FC) [3] | MIC50 (Candida parapsilosis) [µg/mL] | MIC50 (Candida albicans) [µg/mL] | MIC50 (Nakaseomyces glabratus) [µg/mL]
N=C(N)c1ccc(OCCCCCOc2ccc(C(=N)N)cc2)cc1 [PENTAMIDINE] | 1 to 10 | – | – | – | – | –
Cn1cc(NC(=O)c2cc(NC(=O)c3ccc(/C=C/c4nc5ccccc5s4)cc3)cn2C)cc1C(=O)NCCC(=N)N | – | 4.09 (≈ 2.43 µg/mL) | 1.6 | – | – | –
Cl.Cl.N=C(N)N/N=C/c1ccc(-c2ccc(/C=N/NC(=N)N)s2)cc1 | – | – | – | 2 to 15.6 | 2 to 15.6 | 2 to 15.6
Cl.Cl.N=C(N)N/N=C/c1ccc(-c2ccc(/C=N/NC(=N)N)o2)cc1 | – | – | – | 2 to 15.6 | 2 to 15.6 | 2 to 15.6
Cl.Cl.N=C(N)N/N=C/c1ccc(-c2cnc(-c3ccc(/C=N/NC(=N)N)cc3)s2)cc1 | – | – | – | 2 to 15.6 | 2 to 15.6 | 2 to 15.6
C/C(=N\NC(=N)N)c1ccc(-c2ccc(/C(C)=N/NC(=N)N)s2)cc1.Cl.Cl | – | – | – | 2 to 15.6 | 2 to 15.6 | 2 to 15.6
Cn1cc(NC(=O)c2cc(NC(=O)c3ccc(/C=C/c4ccc(C(F)(F)F)cc4)cc3)cn2C)cc1C(=O)NCCC(=N)N | – | 4.19 (≈ 2.54 µg/mL) | 2.1 | – | – | –
